Reference: ChEMBL document CHEMBL1255184, “A novel series of positive modulators of the AMPA receptor: structure-based lead optimization” (Bioorg Med Chem Lett, 2010)
Values after ≈ are worked out from the molar mass of the structure shown. Active and inactive are the calls of the source. No cut-off for these calls is given here.

What was measured:
[1] = Oral bioavailability in Wistar rat at 10 mg/kg; type: ADME, organism-based; conditions: in vivo
[2] = Ratio of drug level in brain to plasma in Wistar rat; type: ADME
[3] = Plasma clearance in Wistar rat at 2 mg/kg, iv; type: ADME, organism-based; design: dose 2 mg/kg, route intravenous
[4] = Volume of distribution at steady state in Wistar rat at 2 mg/kg, iv; type: ADME, organism-based; design: dose 2 mg/kg, route intravenous; conditions: in vivo, read-out: Vdss
[5] = Half life in Wistar rat at 2 mg/kg, iv; type: ADME, organism-based; design: dose 2 mg/kg, route intravenous; conditions: in vivo
[6] = Solubility of the compound; type: physicochemical
[7] = Intrinsic clearance in human microsomes; type: ADME, Microsome
[8] = Intrinsic clearance in rat microsomes; type: ADME, Microsome
[9] = Inhibition of GABA receptor
Rattus norvegicus = assay: Potentiation of AMPA-induced single unit activity in iv dosed hippocampus of anesthetized rat by electrophysiology assay; type: functional; conditions: read-out: MED
[10] = Inhibition of kainate receptor
[11] = Inhibition of NMDA receptor

SMILES	bioavailability [1]	Kp [2]	clearance [3]	Vd [4]	half-life [5]	solubility [6]	microsomal CLint [7]	microsomal CLint [8]	inhibition [9]	minimal effective dose (Rattus norvegicus)	inhibition [10]	inhibition [11]
O=C(Cn1nc(C(F)(F)F)c2c1CCCC2)Nc1sc2c(c1C(=O)N[C@@H]1CCNC1)CCCC2	4%	1.03	2.3 mL/min/kg	0.5 L/kg	3.8 h	20 µg/mL (≈ 40.4 µM)						
CNCc1cn(CC(=O)Nc2sc3c(c2C(N)=O)CCCC3)nc1C(C)(C)C	16%		9 mL/min/kg	1.1 L/kg	1.9 h	79 µg/mL (≈ 196 µM)	15 µL/min/mg	15 µL/min/mg				
CCN(CC)Cc1cn(CC(=O)Nc2sc3c(c2C(N)=O)CCCC3)nc1C(F)(F)F							> 270 µL/min/mg	> 270 µL/min/mg				
CCNCc1cn(CC(=O)Nc2sc3c(c2C(N)=O)CCCC3)nc1C(F)(F)F	43%	0.05	15 mL/min/kg	0.6 L/kg	1.1 h	107 µg/mL (≈ 249 µM)	< 12 µL/min/mg	< 19 µL/min/mg	inactive	0.3 mg/kg	inactive	inactive
CNCc1cn(CC(=O)Nc2sc3c(c2C(N)=O)CCCC3)nc1C(F)(F)F	15%		23 mL/min/kg	2.4 L/kg	1.5 h	65 µg/mL (≈ 156 µM)	33 µL/min/mg	< 12 µL/min/mg				
CNCc1cn(CC(=O)Nc2sc3c(c2C(=O)NC)CCCC3)nc1C(F)(F)F			43 mL/min/kg				16 µL/min/mg	33 µL/min/mg				
O=C(Cn1nc(C(F)(F)F)c2c1CCCC2)Nc1sc2c(c1CO)CCCC2							> 270 µL/min/mg	> 270 µL/min/mg				
CNCc1cn(CCC(=O)Nc2sc3c(c2C(N)=O)CCCC3)nc1C(F)(F)F							89 µL/min/mg	49 µL/min/mg				
NC(=O)c1c(NC(=O)Cn2nc(C(F)(F)F)c3c2CCNC3)sc2c1CCCC2							57 µL/min/mg	33 µL/min/mg				
